The values below come from patent US9273095B2, “Antibiotic peptide and preparation method therefor and application therefor” (priority 2011, dated 2016).

One series deals with candida krusei. Description: microbe, parasite or virus in culture. Type of series: cell-based. From the text:
• (1) Test strains: monilia albicans (candida albicans), candida glabrata, candida krusei, candida tropicalis, aspergillus fumigatus and flavous. (2) Quality control strains: candida krusei JLC30366 (ATCC6258). Antimicrobial peptides PL-13 (SEQ ID NO: 1) under test are supplied by Jiangsu ProteLight Pharmaceutical & Biotechnology Co., LTD. […] (1) The bacterial strains which preserved on PDA slant are respectively inoculated onto PDA plate and slant medium. Activation of bacterial strains is conducted at a humidity level of 60% and 25° C. (for aspergillus) or 37° C. (for candida). (2) 0.9% stroke-physiological saline solution comprising 0.5% Tween-80 is used to prepare bacterial suspension for experiment. Hemocytometer is utilized to adjust concentration of the bacterial suspension to 1-3×10^6 CFU/ml (0.5 McFarland units) to make stock solution in reserve at -20° C. During the sensitivity test, the RPMI-1640 liquid medium is diluted 1000 times to 1-3×10^3 CFU/ml. (3) The RPMI-1640 liquid is utilized as diluent to 10-fold dilute stock solution of peptides. […] The eleventh orifice is used as living control orifice, while the twelfth one as blank control. (4) The RPMI-1640 liquid is utilized as diluent to 10-fold dilute stock solution of FCZ and ICZ. […] Ditto for other operations.

A further series relates to aspergillus flavous. The series is described as follows: microbe, parasite or virus in culture. Type of series: cell-based. As to the method:
(§1) • (1) Test strains: monilia albicans (candida albicans), candida glabrata, candida krusei, candida tropicalis, aspergillus fumigatus and flavous. Antimicrobial peptides PL-13 (SEQ ID NO: 1) under test are supplied by Jiangsu ProteLight Pharmaceutical & Biotechnology Co., LTD. […] Activation of bacterial strains is conducted at a humidity level of 60% and 25° C. (for aspergillus) or 37° C. (for candida). (2) 0.9% stroke-physiological saline solution comprising 0.5% Tween-80 is used to prepare bacterial suspension for experiment. Hemocytometer is utilized to adjust concentration of the bacterial suspension to 1-3×10^6 CFU/ml (0.5 McFarland units) to make stock solution in reserve at -20° C. During the sensitivity test, the RPMI-1640 liquid medium is diluted 1000 times to 1-3×10^3 CFU/ml. (3) The RPMI-1640 liquid is utilized as diluent to 10-fold dilute stock solution of peptides. […] The eleventh orifice is used as living control orifice, while the twelfth one as blank control. (4) The RPMI-1640 liquid is utilized as diluent to 10-fold dilute stock solution of FCZ and ICZ. […] Ditto for other operations.

The next series deals with aspergillus fumigatus. Description: microbe, parasite or virus in culture. The class given is cell-based. As to the method:
as §1

Series [1] relates to Acinetobacter calcoaceticus. The series is described as follows: microbe, parasite or virus in culture. The class given is cell-based. As for the experimental part:
(§2) The experimental strains are 37 standard strains preserved in lab and clinical isolated bacteria, including drug-resistant bacteria and quality-control bacteria selecting Staphylococcus aureus ATCC29213, Enterococcus faecalis ATCC29212, Escherichia coli ATCC25922, Pseudomonas aeruginosa ATCC27853 and klebsiella pneumoniae ATCC700603.
(§3) (1) Sensitivity test is conducted with two-fold agar dilution method and Denlay multipoint inoculator. Test bacteria are cultured with nutrient broth and brain heart infusion.
(§4) (2) The drug is double diluted into different concentration with MH broth after dissolved and then placed in the plate respectively.
(§5) (3) After dissolved, MH agar culture medium are injected into the plate with drug quantitatively and mixed to make the final concentration of drug are 0.03, 0.06, 0.125, . . . , 128 μg/ml respectively.
(§6) (4) After solidification of the culture medium in the plate, test bacteria (10^4CFU/point) are inoculated by multipoint inoculator and cultured for 18 hours at constant 35° C. Then observe the results.

For a further series, the system named is Enterobacter aerogenes. The series is described as follows: microbe, parasite or virus in culture. Type of series: cell-based. As for the experimental part:
as §2, §3, §4, §5, §6

Another series relates to Enterobacter cloacae. Description: microbe, parasite or virus in culture. Type of series: cell-based. As to the method: as §2, §3, §4, §5, §6
The subject of another series is Escherichia coli. The series is described as follows: microbe, parasite or virus in culture. The class given is cell-based. To be noted: 08-5 (ESBLs) Extended Spectyumβ-lactamase. As to the method: as §2, §3, §4, §5, §6
The subject of another series is Feilaoti citrobacter. The series is described as follows: microbe, parasite or virus in culture. The class given is cell-based. As for the experimental part: as §2, §3, §4, §5, §6
The test system of a further series is Proteus vulgaris. Description: microbe, parasite or virus in culture. The class given is cell-based. As for the experimental part: as §2, §3, §4, §5, §6
The subject of a further series is Salmonella typhimurium. The series is described as follows: microbe, parasite or virus in culture. The conditions noted are these: murium. Type of series: cell-based. As for the experimental part: as §2, §3, §4, §5, §6
For the next series, the system named is Serratia marcescens. Description: microbe, parasite or virus in culture. Type of series: cell-based. As for the experimental part:
as §2, §3, §4, §5, §6

In a further series the test system is Shigella flexneri. Description: microbe, parasite or virus in culture. Type of series: cell-based. As for the experimental part:
as §2, §3, §4, §5, §6

For a further series, the system named is Shigella sonnei. The series is described as follows: microbe, parasite or virus in culture. To be noted: Shigella sonnei strains 51592. The class given is cell-based. As to the method:
as §2, §3, §4, §5, §6

For another series, the system named is Shigella. Description: microbe, parasite or virus in culture. Type of series: cell-based. As to the method: as §2, §3, §4, §5, §6
For the next series, the system named is Staphylococcus aureus. The series is described as follows: microbe, parasite or virus in culture. Type of series: cell-based. As for the experimental part: as §2, §3, §4, §5, §6
In series [2] the test system is Staphylococcus epidermidis. The series is described as follows: microbe, parasite or virus in culture. The class given is cell-based. As for the experimental part: as §2, §3, §4, §5, §6
The next series concerns Typhoid bacillus H901. The series is described as follows: microbe, parasite or virus in culture. The class given is cell-based. As to the method:
as §2, §3, §4, §5, §6

Series [3] deals with red cell suspension from healthy volunteers. Description: Hemolytic activity test. Type of series: cell-based, human. To be noted: for Hemolytic activity, absorbancy (OD value) at 570 nm: 4 hours at 37° C., OD higher than 0.1 is hemolytic, n = 3. As to the method:
(1) Samples are serial diluted with sterile PBS to 1000, 500, 250, 125, 64, 32, 16, 8, 4 μg/ml in turn and spread in 96-well plates, 100 μl per orifice.
(2) We use distilled water as positive control, sterile PBS as negative control and blank orifice with 200 μl PBS solution added. Each concentration above is made in triplicate.
(3) We take 3 ml whole blood from healthy volunteers and washed it with sterile PBS three times to prepare fresh 2% concentration red cell suspension. Then we added 100 μl red cell suspension into each orifice and made them cultured for 4 hours at 37° C. in the incubator. After centrifuged by plate-swashing centrifuge, the supernatant liquid is collected and measured absorbancy (OD value) at a wavelength of 570 nm. Then we compared the hemolytic efficiency of these concentrations.
(4) According to the documents standard, OD value which is higher than 0.1 is hemolytic concentration.

For the next series, the target named is PL-43 (SEQ ID NO: 24). The series is described as follows: RP-HPLC temperature profiling 5-80 C, normalised to random coil peptide C; self-association of the peptide with itself.
Another series deals with PL-40 (SEQ ID NO: 18). The series is described as above.
The target in the next series is PL-34 (SEQ ID NO: 6). The series is described as above.
Another series deals with PL-18 (SEQ ID NO: 1). The description is as above.
A further series addresses PL-51 (SEQ ID NO: 30). The series is described as above.

Where two headings read alike, the source gives them in different places. Non-standard residues stand in square brackets, D forms with d. No end group written: not given here.

Regarding Ac-FKKLKKLFSKLLNLK-NH2 [PL-26], the values for the Minimal inhibitory concentration with candida krusei, with aspergillus flavous and with aspergillus fumigatus were 8 µg/mL, above 64 µg/mL and 32 µg/mL, respectively. The MIC in series [1] is 6.7 µM; against Enterobacter aerogenes, 1.3 µM; against Enterobacter cloacae it was 1.7 µM; against Escherichia coli, 1.3 µM; in the series with Feilaoti citrobacter it was 2.7 µM; with Proteus vulgaris, 6.7 µM. Further, the MIC in the series on Salmonella typhimurium was found to be 5.3 µM; against Serratia marcescens, 0.02 µM; in the series with Shigella flexneri, 1.3 µM; against Shigella sonnei, 1.3 µM; in the series on Shigella it was 0.3 µM; with Staphylococcus aureus (08-49(MSSA) Meticillin susceptible staphylococcus aureus) it was 1.3 µM. The MIC is given as 1.3 µM in the series on Staphylococcus aureus (08-52(MRSA) Methicillin-resistant staphylococcus aureus); 1.3 µM with Staphylococcus aureus (Staphylococcus aureus ATCC25923); 1.3 µM in the series on Staphylococcus aureus (Staphylococcus aureus ATCC29213); 1.3 µM with Staphylococcus aureus (strain 15 (listed under Staphylococcus aureus)); 0.7 µM in series [2]; 2.7 µM in [2] (08-17 (MSSE) Meticillin susceptible staphylococcus epidermidis). For the same molecule, the MIC (in series [2] (08-18 (MRSE) Methicillin-resistant staphylococcus epidermidis); with Typhoid bacillus H901) was 2.7 µM each time. Also, the “Hemolytic activity, absorbancy (OD value) at 570 nm” value turned out to be 0.020 in series [3] (peptide 7.8125 μg/ml); 0.047 in series [3] (peptide 15.625 μg/ml); 0.057 in [3] (peptide 31.25 μg/ml); 0.068 in [3] (peptide 62.5 μg/ml); 0.075 in series [3] (peptide 125 μg/ml); 0.089 in [3] (peptide 250 μg/ml). Besides, the “Hemolytic activity, absorbancy (OD value) at 570 nm” value in series [3] (peptide 500 μg/ml) came to 0.121; in [3] (peptide 1000 μg/ml), 0.327. The “hemolytic toxicity (in words)” value in [3] (summary of Table 9) is “little hemolytic toxicity”.
As for [dF][dK][dK][dF][dK][dK][dL][dL][dS][dK][dL][dW][dN][dW][dK] [PL-43 (SEQ ID NO: 24)], the PA (self-association parameter) with PL-43 (SEQ ID NO: 24) stood at 1.65 min.
Molecule [dK][dL][dK][dK][dL][dF][dS][dK][dL][dW][dN][dW][dK] [PL-40 (SEQ ID NO: 18)] came in with a PA (self-association parameter) with PL-40 (SEQ ID NO: 18) of 0.55 min.
In the series with PL-34 (SEQ ID NO: 6), [dF][dK][dK][dL][dK][dK][dK][dF][dS][dK][dL][dW][dN][dW][dK] [PL-34 (SEQ ID NO: 6)] gave a PA (self-association parameter) of 0.81 min.

B1: PL-18 (SEQ ID NO: 1) (peptide)
peptide: Ac-[dF][dK][dK][dL][dK][dK][dL][dF][dS][dK][dL][dW][dN][dW][dK]-NH2
SMILES: CC(=O)N[C@H](Cc1ccccc1)C(=O)N[C@H](CCCCN)C(=O)N[C@H](CCCCN)C(=O)N[C@H](CC(C)C)C(=O)N[C@H](CCCCN)C(=O)N[C@H](CCCCN)C(=O)N[C@H](CC(C)C)C(=O)N[C@H](Cc1ccccc1)C(=O)N[C@H](CO)C(=O)N[C@H](CCCCN)C(=O)N[C@H](CC(C)C)C(=O)N[C@H](Cc1c[nH]c2ccccc12)C(=O)N[C@H](CC(N)=O)C(=O)N[C@H](Cc1c[nH]c2ccccc12)C(=O)N[C@H](CCCCN)C(N)=O
Take B1: the PA (self-association parameter) in the series with PL-18 (SEQ ID NO: 1) was 0.56 min.
Molecule [dL][dF][dK][dK][dL][dK][dK][dL][dF][dS][dK][dL][dW][dN][dW][dK] [PL-51 (SEQ ID NO: 30)] showed a PA (self-association parameter) with PL-51 (SEQ ID NO: 30) of 1.63 min.
